According to patent US10722514B2 (FLX Bio, Inc., priority 2017, dated 2020):

Biological target: T1, recombinant full-length USP7 (Homo sapiens, UniProt Q93009)
T1 construct: A 25 μl reaction volume containing recombinant full-length USP7 (62 pM)
Experiment: USP7-mediated ubiquitin-rhodamine cleavage assay
Format: biochemical
Settings: recombinant full-length USP7 62 pM; ubiquitin-rhodamine 100 nM; 30-minute incubation with compound, 1 hour reaction at room temperature; read-out: Potency: USP7 IC50
Procedure, shortened: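 Rhodamine fluorescence read-out after acetic acid stop; IC50 by 4-parameter nonlinear regression. Enzyme at 62 pM, substrate ubiquitin-rhodamine 100 nM final, 1 h at room temperature in the dark, after 30 min compound preincubation. Buffer: HEPES pH 7.3, NaCl, TCEP, BSA; 1% DMSO.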

T1 sequence (Q93009 whole entry): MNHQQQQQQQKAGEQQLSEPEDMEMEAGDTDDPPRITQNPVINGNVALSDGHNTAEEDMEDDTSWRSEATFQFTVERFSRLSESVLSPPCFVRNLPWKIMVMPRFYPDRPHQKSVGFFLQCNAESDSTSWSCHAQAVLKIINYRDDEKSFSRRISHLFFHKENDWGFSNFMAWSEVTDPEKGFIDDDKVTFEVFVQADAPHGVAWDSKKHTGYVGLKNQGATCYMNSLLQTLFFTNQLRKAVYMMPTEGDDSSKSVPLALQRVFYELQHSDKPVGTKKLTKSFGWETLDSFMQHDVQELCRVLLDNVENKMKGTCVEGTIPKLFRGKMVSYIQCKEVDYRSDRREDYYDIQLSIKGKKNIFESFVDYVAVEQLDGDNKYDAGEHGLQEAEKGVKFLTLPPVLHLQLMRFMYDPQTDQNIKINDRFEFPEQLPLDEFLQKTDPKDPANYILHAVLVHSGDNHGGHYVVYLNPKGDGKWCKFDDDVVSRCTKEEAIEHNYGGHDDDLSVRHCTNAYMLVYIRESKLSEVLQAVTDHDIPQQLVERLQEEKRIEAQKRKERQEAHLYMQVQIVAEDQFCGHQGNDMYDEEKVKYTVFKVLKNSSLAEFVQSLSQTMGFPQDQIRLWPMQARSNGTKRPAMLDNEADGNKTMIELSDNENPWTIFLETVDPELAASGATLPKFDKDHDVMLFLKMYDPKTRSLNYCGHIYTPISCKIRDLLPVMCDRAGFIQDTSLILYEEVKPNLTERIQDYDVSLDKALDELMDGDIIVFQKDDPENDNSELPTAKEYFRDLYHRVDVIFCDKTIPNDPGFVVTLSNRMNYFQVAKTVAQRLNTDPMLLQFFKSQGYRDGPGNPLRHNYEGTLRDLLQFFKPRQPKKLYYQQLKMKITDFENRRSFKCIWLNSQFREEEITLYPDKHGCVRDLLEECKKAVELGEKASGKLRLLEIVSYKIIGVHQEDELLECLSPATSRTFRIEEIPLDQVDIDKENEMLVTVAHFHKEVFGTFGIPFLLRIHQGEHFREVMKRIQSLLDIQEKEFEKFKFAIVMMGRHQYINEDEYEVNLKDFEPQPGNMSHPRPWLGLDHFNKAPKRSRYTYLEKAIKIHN

| Compound | IC50 [nM] |
| --- | --- |
| Cc1cc(Cl)cc(-c2ccnc3cc(CN4C(=O)c5cccnc5C4=O)sc23)c1O[C@H]1CCCNC1 [Example 334, 6-[[7-[5-chloro-3-methyl-2-[[(3S)-3-piperidyl]oxy]phenyl]thieno[3,2-b]pyridin-2-yl]methyl]pyrrolo[3,4-b]pyridine-5,7-dione; 2,2,2-trifluoroacetic acid] | < 1000 |
| Cc1cc(Cl)cc(-c2ccnc3cc(Cn4c(=O)ccn(CC(F)(F)F)c4=O)sc23)c1O[C@@H]1CC[C@@H](N)C1 [Example 59, 3-((7-(2-(((1R,3R)-3-Aminocyclopentyl)oxy)-5-chloro-3-methylphenyl)thieno[3,2-b]pyridin-2-yl)methyl)-1-(2,2,2-trifluoroethyl)pyrimidine-2,4(1H,3H)-dione] | < 1000 |

Now from value to compound:

| IC50 [nM] | Compound |
| --- | --- |
| < 1000 | Cc1cc(Cl)cc(-c2ncnc3cc(CN4C(=O)c5ccccc5C4=O)sc23)c1OC1CCNCC1 [Example 202, 2-((4-(5-Chloro-3-methyl-2-(piperidin-4-yloxy)phenyl)thieno[3,2-d]pyrimidin-6-yl)methyl)isoindoline-1,3-dione] |
| < 1000 | Cc1cc(Cl)cc(-c2ccnc3cc(CN4C(=O)C5C(C4=O)C5(C)C)sc23)c1O[C@@H]1CCNC[C@@H]1F (stereo partly drawn) [Example 376, 3-[[7-[5-chloro-2-[[(3S,4R)-3-fluoro-4-piperidyl]oxy]-3-methyl-phenyl]thieno[3,2-b]pyridin-2-yl]methyl]-6,6-dimethyl-3-azabicyclo[3.1.0]hexane-2,4-dione; 2,2,2-trifluoroacetic acid] |
| < 1000 | Cc1cc(Cl)cc(-c2ccnc3cc(CN4C(=O)N(C)C(C)(C)C4=O)sc23)c1O[C@@H]1CNC[C@@H]1F [Example 155, 3-((7-(5-Chloro-2-(((3R,4S)-4-fluoropyrrolidin-3-yl)oxy)-3-methylphenyl)thieno[3,2-b]pyridin-2-yl)methyl)-1,5,5-trimethylimidazolidine-2,4-dione] |
| < 1000 | Cc1cc(Cl)cc(-c2ccnc3cc(Cn4c(=O)ccn(C)c4=O)sc23)c1OC1CCN(C2COC2)CC1 [Example 255, 3-((7-(5-Chloro-3-methyl-2-((1-(oxetan-3-yl)piperidin-4-yl)oxy)phenyl)thieno[3,2-b]pyridin-2-yl)methyl)-1-methylpyrimidine-2,4(1H,3H)-dione] |

Same assay, conditions: recombinant full-length USP7 62 pM; ubiquitin-rhodamine 100 nM; 30-minute pre-incubation, 1 hour reaction at room temperature; read-out: Potency (USP7 IC50)

| IC50 [nM] | Compound |
| --- | --- |
| < 1000 | Cc1cc(C(F)(F)F)cc(-c2ccnc3cc(Cn4c(=O)ccn(C)c4=O)sc23)c1OC1CCNCC1 [Example 446, 1-methyl-3-[[7-[3-methyl-2-(4-piperidyloxy)-5-(trifluoromethyl)phenyl]thieno[3,2-b]pyridin-2-yl]methyl]pyrimidine-2,4-dione] |
| < 1000 | Cc1cc(Cl)cc(-c2ccnc3cc(Cn4c(=O)ccn(C)c4=O)sc23)c1O[C@@H]1CNC[C@@H]1C(F)(F)F [Example 441, 3-[[7-[5-chloro-3-methyl-2-[(3S,4S)-4-(trilfuoromethyl)pyrrolidin-3-yl]oxy-phenyl]thieno[3,2-b]pyridin-2-yl]methyl]-1-methyl-pyrimidine-2,4-dione] |
| < 1000 | Cc1cc(Cl)cc(-c2ccnc3cc(Cn4c(=O)ccn(CC(F)(F)F)c4=O)sc23)c1OC1CC2CNC1C2 (stereo not shown) [Example 535, 3-[[7-[2-(3-azabicyclo[2.2.1]heptan-5-yloxy)-5-chloro-3-methyl-phenyl]thieno[3,2-b]pyridin-2-yl]methyl]-1-(2,2,2-trifluoroethyl)pyrimidine-2,4-dione] |
| < 1000 | Cc1cc(Cl)cc(-c2ccnc3cc(Cn4c(=O)ccn(CC(F)(F)F)c4=O)sc23)c1OC1CCNCC1(C)C (stereo not shown) [Example 616, 3-[[7-[5-chloro-2-[(3,3-dimethyl-4-piperidyl)oxy]-3-methyl-phenyl]thieno[3,2-b]pyridin-2-yl]methyl]-1-(2,2,2-trifluoroethyl)pyrimidine-2,4-dione; 2,2,2-trifluoroacetic acid] |
